Measurements as given in PubChem BioAssay (NCI).
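Compound exposure: 48 hours, 5 concentrations, 96-well plates. GI50 is the concentration that inhibits growth by half. TGI denotes the concentration required for complete inhibition of growth.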

How the values were obtained:
Assay in all cases: growth of human tumour cells (NCI), 48 h
CCRF-CEM leukemia = tested on: CCRF-CEM leukemia
COLO 205 colon = tested on: COLO 205 colon
IGROV1 ovarian = tested on: IGROV1 ovarian
LOX IMVI melanoma = tested on: LOX IMVI melanoma
NCI/ADR-RES ovarian = tested on: NCI/ADR-RES ovarian
SF-539 CNS = tested on: SF-539 CNS
SW-620 colon = tested on: SW-620 colon
TK-10 renal = tested on: TK-10 renal

| SMILES | GI50 (CCRF-CEM leukemia) | TGI (CCRF-CEM leukemia) | GI50 (COLO 205 colon) | TGI (COLO 205 colon) | GI50 (IGROV1 ovarian) | TGI (IGROV1 ovarian) | GI50 (LOX IMVI melanoma) | TGI (LOX IMVI melanoma) | GI50 (NCI/ADR-RES ovarian) | TGI (NCI/ADR-RES ovarian) | GI50 (SF-539 CNS) | TGI (SF-539 CNS) | GI50 (SW-620 colon) | TGI (SW-620 colon) | GI50 (TK-10 renal) | TGI (TK-10 renal) |
| --- | --- | --- | --- | --- | --- | --- | --- | --- | --- | --- | --- | --- | --- | --- | --- | --- |
| CN1CCCNc2c(c(=O)c2=O)NCCCN(C)CCCNc2c(c(=O)c2=O)NCCCN(C)CCCNc2c(c(=O)c2=O)NCCCN(C)CCCNc2c(c(=O)c2=O)NCCCN(C)CCCNc2c(c(=O)c2=O)NCCCN(C)CCCNc2c(c(=O)c2=O)NCCCN(C)CCCNc2c(c(=O)c2=O)NCCC1 | 2.24 µM | 49.3 µM | 2 µM | 6.13 µM | 3.13 µM | 23.8 µM | 10.5 µM | > 50 µM | 5.96 µM | 26.7 µM | 1.89 µM | 7.69 µM | 4.63 µM | 25.3 µM | 1.71 µM | 8.24 µM |
| C1CCN(CCC2CCCCN2)CC1 (centres undefined) | – | > 100 µM | – | > 100 µM | – | > 100 µM | – | > 100 µM | – | > 100 µM | – | > 100 µM | – | > 100 µM | – | > 100 µM |
| COc1ccc(Nn2c(SCC(=O)Nc3nc(-c4ccc(Cl)cc4)cs3)nc(C)c2C)cc1 | 3.82 µM | > 100 µM | 1.94 µM | 3.55 µM | 5.67 µM | > 100 µM | 3.02 µM | 44.2 µM | 2.89 µM | > 100 µM | 4.15 µM | > 100 µM | 4.78 µM | > 100 µM | 14.8 µM | 80.9 µM |
| CC(C)CCOc1ccc(-c2n[nH]c(C(F)(F)F)c2-c2cncc(C#N)c2)c(O)c1 | – | – | 1.68 µM | 3.14 µM | 3.35 µM | > 100 µM | 2.77 µM | 8.98 µM | 2.2 µM | 7.35 µM | 2.8 µM | 16.7 µM | 3.44 µM | > 100 µM | 3.15 µM | 14.1 µM |
| CCN(CC)c1cc(/C=C/c2ccc(OC)c(OC)c2)nc2cc(F)c(F)cc12 | 3.18 µM | 11 µM | 26.7 µM | > 100 µM | 3.46 µM | 12 µM | 7.24 µM | 37.7 µM | 7.52 µM | > 100 µM | 10.4 µM | 92.9 µM | > 100 µM | > 100 µM | 2.99 µM | 8.75 µM |
| O=[N+]([O-])c1ccc(-c2nc(-c3ccccc3)c(-c3ccccc3)n2-c2ccccc2)cc1 | 2.83 µM | > 23.8 µM | 1.78 µM | 3.49 µM | 2.42 µM | 7.28 µM | 2.4 µM | 6.86 µM | 2.68 µM | 7.88 µM | 2.02 µM | 4.78 µM | 2.6 µM | 9.28 µM | 4.01 µM | 16.9 µM |
| OCCCN=NNc1ccc(-c2nc3ccccc3[nH]2)cc1 | 0.644 µM | > 100 µM | 12.3 µM | 52.9 µM | 5.26 µM | 45.8 µM | – | – | – | – | 5.97 µM | 28.4 µM | 3.04 µM | > 100 µM | 31.9 µM | 82.5 µM |
| CC(=O)N1CC(Nc2ccc(OC(F)(F)F)cc2)=CC1=O | 2.52 µM | > 100 µM | 1.21 µM | 4.69 µM | 7.81 µM | > 100 µM | 2.32 µM | > 100 µM | 0.781 µM | 5.15 µM | 1.31 µM | 9.01 µM | 0.476 µM | > 100 µM | 5.85 µM | > 100 µM |
